The target of the assay is hPin1 (Protein interacting with NIMA (-kinase)) (Homo sapiens, UniProt Q13526). The experiment in a line: protease-coupled PPIase assay, hPin1. The assay is classed as biochemical. The note with it: hPin1 6 nM; substrate Ac-Ala-Ala-Ser(PO3H2)-Pro-Arg-pNA, trypsin; 35 mM HEPES pH 7.8, 6° C.; read-out: Specificity of the inhibition with rotamases, Target T-1 (IC50 class).

Molecules are shown by their SMILES.

Chain of hPin1 (Protein interacting with NIMA (-kinase)) (Q13526 whole entry): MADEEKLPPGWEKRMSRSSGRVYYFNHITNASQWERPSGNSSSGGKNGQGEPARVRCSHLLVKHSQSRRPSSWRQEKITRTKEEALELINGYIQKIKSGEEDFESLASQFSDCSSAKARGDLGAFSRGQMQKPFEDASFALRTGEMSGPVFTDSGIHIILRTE

Usually IC50 stands for the concentration at which inhibition is half-maximal. As to `NC(=O)[C@H](Cc1ccc2ccccc2c1)NC(=O)[C@@H]1CCCCN1CCSCP(=O)(O)O` [Compound 55, {2-[2-(1-Carbamoyl-2-naphthalen-2-yl-ethylcarbamoyl)-piperidin-1-yl]-ethylsulfanylmethyl}-phosphonic acid], the IC50 was < 1 µM.

As to `NC(=O)[C@H](Cc1ccc2ccccc2c1)NC(=O)[C@@H]1CCCCN1C(=O)[C@H](CSCP(=O)(O)O)NC(=O)Cc1ccc2c(c1)OCO2` [Compound 56, {2-(2-Benzo[1.3]dioxol-5-yl-acetylamino)-3-[2-(1-carbamoyl-2-naphthalen-2-yl-ethylcarbamoyl)-piperidin-1-yl]-3-oxo-propylsulfanylmethyl}-phosphonic acid], the IC50 was < 1 µM. Next, `COc1cc(CC(=O)N[C@@H](CSCP(=O)(O)O)C(=O)N2CCCC[C@H]2C(=O)N[C@@H](Cc2ccc3ccccc3c2)C(N)=O)cc(OC)c1` [Compound 57, {3-[2-(1-Carbamoyl-2-naphthalen-2-yl-ethylcarbamoyl)-piperidin-1-yl]-2-[2-(3.5-dimethoxy-phenyl)-acetylamino]-3-oxo-propylsulfanylmethyl}-phosphonicacid]: < 1 µM. Next, `COc1ccccc1CC(=O)N[C@@H](CSCP(=O)(O)O)C(=O)N1CCCC[C@H]1C(=O)N[C@@H](Cc1ccc2ccccc2c1)C(N)=O` [Compound 58, {3-[2-(1-Carbamoyl-2-naphthalen-2-yl-ethylcarbamoyl)-piperidin-1-yl]-2-[2-(2-methoxy-phenyl)-acetylamino]-3-oxo-propylsulfanylmethyl}-phosphonicacid]: < 1 µM. As for `O=C(NCCc1ccc2ccccc2c1)[C@@H]1CCCCN1C(=O)CSCP(=O)(O)O` [Compound 59, {2-[2-(2-Naphthalen-2-yl-ethylcarbamoyl)-piperidin-1-yl]-2-oxo-ethylsulfanylmethyl}-phosphonic acid], the figure is 1 to 10 µM; as for `O=C(Nc1ccccc1)[C@@H]1CCCCN1C(=O)CSCP(=O)(O)O` [Compound 60, [2-Oxo-2-(2-phenylcarbamoyl-piperidin-1-yl)-ethylsulfanylmethyl]-phosphonicacid], 1 to 10 µM. As for `COc1cccc(CC(=O)N[C@@H](CSCP(=O)(O)O)C(=O)N2CCCC[C@H]2C(=O)N[C@@H](Cc2ccc3ccccc3c2)C(N)=O)c1` [Compound 61, {3-[2-(1-Carbamoyl-2-naphthalen-2-yl-ethylcarbamoyl)-piperidin-1-yl]-2-[2-(3-methoxy-phenyl)-acetylamino]-3-oxo-propylsulfanylmethyl}-phosphonicacid], the IC50 is < 1 µM.

For the compound `NC(=O)[C@H](Cc1ccc2ccccc2c1)NC(=O)[C@@H]1CCCCN1C(=O)[C@H](CSCP(=O)(O)O)NC(=O)Cc1ccc(N2CCNCC2)cc1` [Compound 62, {3-[2-(1-Carbamoyl-2-naphthalen-2-yl-ethylcarbamoyl)-piperidin-1-yl]-3-oxo-2-[2-(4-piperazin-1-yl-phenyl)-acetylamino]-propylsulfanylmethyl}-phosphonicacid], the IC50 is < 1 µM. As for `CC(C)(C)NC(=O)[C@H](Cc1ccc2ccccc2c1)NC(=O)[C@@H]1CCCCN1C(=O)CSCP(=O)(O)O` [Compound 63, {2-[2-(1-tert-Butylcarbamoyl-2-naphthalen-2-yl-ethylcarbamoyl)-piperidin-1-yl]-2-oxo-ethylsulfanylmethyl}-phosphonicacid], the figure is < 1 µM; as for `CNC(=O)[C@H](Cc1ccc2ccccc2c1)NC(=O)[C@@H]1CCCCN1C(=O)CSCP(=O)(O)O` [Compound 64, {2-[2-(1-Methylcarbamoyl-2-naphthalen-2-yl-ethylcarbamoyl)-piperidin-1-yl]-2-oxo-ethylsulfanylmethyl}-phosphonicacid], < 1 µM; as for `O=C(NCc1ccccc1)[C@@H]1CCCCN1C(=O)CSCP(=O)(O)O` [Compound 66, [2-(2-Benzylcarbamoyl-piperidin-1-yl)-2-oxo-ethylsulfanylmethyl]-phosphonic acid], 1 to 10 µM. As for `O=C(NCCc1ccccc1)[C@@H]1CCCCN1C(=O)CSCP(=O)(O)O` [Compound 67, [2-Oxo-2-(2-phenethylcarbamoyl-piperidin-1-yl)-ethylsulfanylmethyl]-phosphonicacid], the figure is 1 to 10 µM; as for `O=C(NCCCc1ccccc1)[C@@H]1CCCCN1C(=O)CSCP(=O)(O)O` [Compound 68, {2-Oxo-2-[2-(3-phenyl-propylcarbamoyl)-piperidin-1-yl]-ethylsulfanylmethyl}-phosphonicacid], 1 to 10 µM.

As to `CC(C)(C)NC(=O)[C@H](Cc1ccc2ccccc2c1)NC(=O)[C@@H]1CCCCN1CCSCP(=O)(O)O` [Compound 71, {2-[2-(1-tert-Butylcarbamoyl-2-naphthalen-2-yl-ethylcarbamoyl)-piperidin-1-yl]-ethylsulfanylmethyl}-phosphonicacid], the IC50 was < 1 µM. In the case of `O=C(NC(Cc1ccc2ccccc2c1)c1ccccc1)[C@@H]1CCCCN1C(=O)CSCP(=O)(O)O` (stereo partly shown) [Compound 73, {2-[2-(2-Naphthalen-2-yl-1-phenyl-ethylcarbamoyl)-piperidin-1-yl]-2-oxo-ethylsulfanylmethyl}-phosphonic acid], the IC50 was < 1 µM.

On to `Cc1csc(C(Cc2ccc3ccccc3c2)NC(=O)[C@@H]2CCCCN2C(=O)CSCP(=O)(O)O)n1` (stereo partly shown) [Compound 74, (2-{2-[1-(4-Methyl-thiazol-2-yl)-2-naphthalen-2-yl-ethylcarbamoyl]-piperidin-1-yl}-2-oxo-ethylsulfanylmethyl)-phosphonic acid], for which the IC50 is 1 to 10 µM. Next, `O=C(NC(Cc1ccc2ccccc2c1)c1nnco1)[C@@H]1CCCCN1C(=O)CSCP(=O)(O)O` (stereo partly shown) [Compound 75, {2-[2-(2-Naphthalen-2-yl-1-[1,3,4]oxadiazol-2-yl-ethylcarbamoyl)-piperidin-1-yl]-2-oxo-ethylsulfanylmethyl}-phosphonic acid]: < 1 µM. Next, `O=C(NC(Cc1ccc2ccccc2c1)c1nnc[nH]1)[C@@H]1CCCCN1C(=O)CSCP(=O)(O)O` (stereo partly shown) [Compound 76, (2-{2-[2-Naphthalen-2-yl-1-(4H-[1,2,4]triazol-3-yl)-ethylcarbamoyl]-piperidin-1-yl}-2-oxo-ethylsulfanylmethyl)-phosphonic acid]: < 1 µM. As for `O=C(NC(Cc1ccc2ccccc2c1)c1ccccn1)[C@@H]1CCCCN1C(=O)CSCP(=O)(O)O` (stereo partly shown) [Compound 77, {2-[2-(2-Naphthalen-2-yl-1-pyridin-2-yl-ethylcarbamoyl)-piperidin-1-yl]-2-oxo-ethylsulfanylmethyl}-phosphonicacid], the figure is < 1 µM.

The record behind these values is US20080194524A1, “Compounds For the Inhibition of Undesired Cell Proliferation and Use Thereof” (JERINI AG, priority 2003, published 2008).
